Measured values: PMC10945555, “Improving Activity of New Arylurea Agents against Multidrug-Resistant and Biofilm-Producing Staphylococcus epidermidis” (ACS Medicinal Chemistry Letters, 2024)
Read-outs that look alike come from different tables or passages of the source.

Assays:
[1] = system: Staphylococcus aureus ATCC BAA-976; assay: MIC, broth microdilution, MDR/BPSA reference strain; format: cell-based; conditions: ATCCBAA976; Staphylococcus aureus ATCC BAA-976; read-out: MIC MDR/BPSA
From the text: These strains included susceptible, multidrug-resistant, and biofilm-producing strains of S. epidermidis and S. aureus (MSSE, MDR/BPSE, and MDR/BPSA, respectively). The cornerstone antibiotic linezolid served as a positive control (Table 1). The impact of structural modifications at the aryloxy fragment and the aromatic moiety bound to the propyl linker on the inhibitory activity was initially investigated. […] Further optimization focused on evaluating the impact of the type of substituent and its position on the arylsulfonamide fragment’s activity.
(§1) 2 Biological assay protocols
(§2) Microbiological tests were carried out under aseptic conditions in a laminar chamber of the 2nd […]
(§3) (BioTectum 1.2, Alchem Poland). The assessment of antimicrobial activity was carried out for final compounds in the form of free bases, soluble in DMSO (Merck, Germany), at the initial […]
(§4) concentration of 1 mg/mL. […]
were provided by Cayman Chemical, USA.
The activity of all newly synthesized compounds was tested in vitro on a panel of selected reference strains from the American Type Culture Collection (ATCC) of Gram-positive […]
(§5) 2.2 Effect of evaluated compounds on planktonic cells
(§6) The susceptibility of three reference bacterial strains (Staphylococcus epidermidis ATCC […]
(§7) Table S1) and 81 clinical MDR S. epidermidis (Table S2) to the tested compounds was assessed by determining the MIC value (Minimal Inhibitory Concentration) by microdilution in a liquid medium in 96-well flat-bottom cell culture plates (Nest Biotechnology Scientific, USA). The antibacterial properties of the compo unds were tested in the concentration range from 50 µg/mL to 0.1 µg/mL by making a series of double dilutions of the compound in liquid Mueller -Hinton II Broth Cation Adjusted (MHB II, BBL TM, USA) according to the European Committee on […]
(§8) Antimicrobial Susceptibility Testing guidelines (EUCAST).2,3 The determinations were performed twice. The MIC50 and MIC90 values were determined for each of the tested

[2] = system: clinical MDR Staphylococcus epidermidis isolates; assay: MIC, broth microdilution, 81 clinical MDR strains; format: cell-based; conditions: Staphylococcus epidermidis
Experimental: as §1, §2, §3, §4
were provided by Cayman Chemical, USA. […]
The antibacterial activity of selected compounds was also tested on a panel of 81 unrelated, multidrug -resistant clinical strains of Staphylococcus epidermidis from the own collection of the Department of Pharmaceutical Microbiology of the Jagiellonian University Medical College.
as §5, §6, §7, §8

O=S(=O)(NC1CCN(CCC(Oc2ccc(C(F)(F)F)cc2)c2cccs2)CC1)c1cccc(C(F)(F)F)c1 (stereo not shown) [Compound 21]
6.25 µg/mL: MIC ([2]; clinical strain 2 (Table S2), read-out: MIC) | MIC ([2]; clinical strain 3 (Table S2), read-out: MIC) | MIC ([2]; clinical strain 8 (Table S2), read-out: MIC) | MIC ([2]; clinical strain 11 (Table S2), read-out: MIC) | MIC ([2]; clinical strain 22 (Table S2), read-out: MIC) | MIC ([2]; clinical strain 42 (Table S2), read-out: MIC) | MIC ([2]; clinical strain 43 (Table S2), read-out: MIC)
0.8 µg/mL: MIC ([2]; clinical strain 1 (Table S2), read-out: MIC) | MIC ([2]; clinical strain 23 (Table S2), read-out: MIC) | MIC ([2]; clinical strain 27 (Table S2), read-out: MIC)
39.4 µg/mL: MIC ([2]; mean of MIC values against clinical MDR-SE isolates, read-out: mean MIC)
25 µg/mL: MIC ([2]; clinical strain 35 (Table S2), read-out: MIC)
3.12 µg/mL: MIC ([2]; clinical strain 9 (Table S2), read-out: MIC) | MIC ([2]; clinical strain 20 (Table S2), read-out: MIC) | MIC ([2]; clinical strain 21 (Table S2), read-out: MIC) | MIC ([2]; clinical strain 24 (Table S2), read-out: MIC) | MIC ([2]; clinical strain 65 (Table S2), read-out: MIC) | MIC ([2]; clinical strain 66 (Table S2), read-out: MIC)
50 µg/mL: MIC [1] | MIC ([2]; clinical strain 4 (Table S2), read-out: MIC) | MIC ([2]; clinical strain 6 (Table S2), read-out: MIC) | MIC ([2]; clinical strain 7 (Table S2), read-out: MIC) | MIC ([2]; clinical strain 10 (Table S2), read-out: MIC) | MIC ([2]; clinical strain 12 (Table S2), read-out: MIC) | MIC ([2]; clinical strain 13 (Table S2), read-out: MIC) | MIC ([2]; clinical strain 14 (Table S2), read-out: MIC) | MIC ([2]; clinical strain 15 (Table S2), read-out: MIC) | MIC ([2]; clinical strain 16 (Table S2), read-out: MIC) | MIC ([2]; clinical strain 17 (Table S2), read-out: MIC) | MIC ([2]; clinical strain 18 (Table S2), read-out: MIC) | MIC ([2]; clinical strain 19 (Table S2), read-out: MIC) | MIC ([2]; clinical strain 25 (Table S2), read-out: MIC) | MIC ([2]; clinical strain 26 (Table S2), read-out: MIC) | MIC ([2]; clinical strain 28 (Table S2), read-out: MIC) | MIC ([2]; clinical strain 29 (Table S2), read-out: MIC) | MIC ([2]; clinical strain 30 (Table S2), read-out: MIC) | MIC ([2]; clinical strain 31 (Table S2), read-out: MIC) | MIC ([2]; clinical strain 32 (Table S2), read-out: MIC) | MIC ([2]; clinical strain 33 (Table S2), read-out: MIC) | MIC ([2]; clinical strain 34 (Table S2), read-out: MIC) | MIC ([2]; clinical strain 36 (Table S2), read-out: MIC) | MIC ([2]; clinical strain 37 (Table S2), read-out: MIC) | MIC ([2]; clinical strain 38 (Table S2), read-out: MIC) | MIC ([2]; clinical strain 39 (Table S2), read-out: MIC) | MIC ([2]; clinical strain 40 (Table S2), read-out: MIC) | MIC ([2]; clinical strain 41 (Table S2), read-out: MIC) | MIC ([2]; clinical strain 44 (Table S2), read-out: MIC) | MIC ([2]; clinical strain 45 (Table S2), read-out: MIC) | MIC ([2]; clinical strain 46 (Table S2), read-out: MIC) | MIC ([2]; clinical strain 47 (Table S2), read-out: MIC) | MIC ([2]; clinical strain 48 (Table S2), read-out: MIC) | MIC ([2]; clinical strain 49 (Table S2), read-out: MIC) | MIC ([2]; clinical strain 50 (Table S2), read-out: MIC) | MIC ([2]; clinical strain 51 (Table S2), read-out: MIC) | MIC ([2]; clinical strain 52 (Table S2), read-out: MIC) | MIC ([2]; clinical strain 53 (Table S2), read-out: MIC) | MIC ([2]; clinical strain 54 (Table S2), read-out: MIC) | MIC ([2]; clinical strain 55 (Table S2), read-out: MIC) | MIC ([2]; clinical strain 56 (Table S2), read-out: MIC) | MIC ([2]; clinical strain 57 (Table S2), read-out: MIC) | MIC ([2]; clinical strain 58 (Table S2), read-out: MIC) | MIC ([2]; clinical strain 59 (Table S2), read-out: MIC) | MIC ([2]; clinical strain 60 (Table S2), read-out: MIC) | MIC ([2]; clinical strain 61 (Table S2), read-out: MIC) | MIC ([2]; clinical strain 62 (Table S2), read-out: MIC) | MIC ([2]; clinical strain 63 (Table S2), read-out: MIC) | MIC ([2]; clinical strain 64 (Table S2), read-out: MIC) | MIC ([2]; clinical strain 67 (Table S2), read-out: MIC) | MIC ([2]; clinical strain 68 (Table S2), read-out: MIC) | MIC ([2]; clinical strain 69 (Table S2), read-out: MIC) | MIC ([2]; clinical strain 70 (Table S2), read-out: MIC) | MIC ([2]; clinical strain 71 (Table S2), read-out: MIC) | MIC ([2]; clinical strain 72 (Table S2), read-out: MIC) | MIC ([2]; clinical strain 73 (Table S2), read-out: MIC) | MIC ([2]; clinical strain 74 (Table S2), read-out: MIC) | MIC ([2]; clinical strain 75 (Table S2), read-out: MIC) | MIC ([2]; clinical strain 76 (Table S2), read-out: MIC) | MIC ([2]; clinical strain 78 (Table S2), read-out: MIC) | MIC ([2]; clinical strain 79 (Table S2), read-out: MIC) | MIC ([2]; clinical strain 80 (Table S2), read-out: MIC) | MIC ([2]; clinical strain 81 (Table S2), read-out: MIC) | MIC50 ([2]; 81 clinical strains, concentration inhibiting growth of 50% clinical isolates) | MIC90 ([2]; 81 clinical strains, concentration inhibiting growth of 90% of clinical isolates)
1.6 µg/mL: MIC ([2]; clinical strain 5 (Table S2), read-out: MIC) | MIC ([2]; clinical strain 77 (Table S2), read-out: MIC)
